pEC50: −log10 of the molar value.
Key:
[1] = biological target: T1, GST tagged LXRalpha LBD (ligand binding domain) (Homo sapiens, UniProt Q13133); assay: LanthaScreen TR-FRET Liver X Receptor Coactivator Assay, LXR alpha-LBD; assay type: biochemical; settings: relative to reference T0901317; for pEC50: Inflection Point (potency), co-activator recruitment, read-out: LXR alpha IP; for Emax: activity at max dose (efficacy), read-out: LXR alpha act @ max dose (%)
T1 construct: purchased Invitrogen pv4655
T1 sequence (Q13133 209-447 limits assumed): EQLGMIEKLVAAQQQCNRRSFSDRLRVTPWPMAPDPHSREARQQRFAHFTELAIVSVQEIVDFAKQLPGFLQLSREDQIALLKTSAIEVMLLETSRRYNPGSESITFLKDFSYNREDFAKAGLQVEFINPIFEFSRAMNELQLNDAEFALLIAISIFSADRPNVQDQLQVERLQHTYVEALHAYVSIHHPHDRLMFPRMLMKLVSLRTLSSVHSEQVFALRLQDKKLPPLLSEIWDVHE
Protocol: (§1) Potency (Inflection Point, IP) and efficacy (Emax) are evaluated via compound-induced co-activator recruitment to glutathione-S-transferase (GST) tagged LXRbeta and LXRalpha LBD (ligand binding domain) proteins in relation to reference dual agonist compound T0901317 (N-(2,2,2-Trifluoroethyl)-N-[4-[2,2,2-trifluoro-1-hydroxy-1-(trifluoromethyl)ethyl] phenyl]benzenesulfonamide) using the LanthaScreen™ TR-FRET Liver X Receptor Coactivator Assays according to manufacturer's instructions (Invitrogen catalog number pv4658.pps and pv4655). While running the LanthaScreen™ TR-FRET Liver X Receptor Coactivator Assay, LXR alpha-LBD or LXR beta-LBD was added to ligand test compounds followed by addition of a mixture of a fluorescein-labelled coactivator peptide and terbium-conjugated anti-GST antibody. After an incubation period at room temperature, TR-FRET (time-resolved fluorescence resonance energy transfer) was measured using a filter-based instrument capable of TR-FRET, e.g. PerkinElmer Envision.

[2] = biological target: T2, GST tagged LXRbeta LBD (ligand binding domain) (Homo sapiens, UniProt P55055); assay: LanthaScreen TR-FRET Liver X Receptor Coactivator Assay, LXR beta-LBD; assay type: biochemical; settings: relative to reference T0901317; for pEC50: Inflection Point (potency), co-activator recruitment, read-out: LXR beta IP; for Emax: activity at max dose (efficacy), read-out: LXR beta act @ max dose (%)
T2 construct: purchased Invitrogen pv4658.pps
T2 sequence (P55055 222-460 limits assumed): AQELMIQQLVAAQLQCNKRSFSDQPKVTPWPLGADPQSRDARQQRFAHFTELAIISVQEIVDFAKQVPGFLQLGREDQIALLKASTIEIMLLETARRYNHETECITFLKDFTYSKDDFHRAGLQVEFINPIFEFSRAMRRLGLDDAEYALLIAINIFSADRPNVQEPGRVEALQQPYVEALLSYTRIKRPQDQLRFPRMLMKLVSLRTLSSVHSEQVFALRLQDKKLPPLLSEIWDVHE
Protocol: as §1

Row | SMILES | pEC50 [1] | Emax [1] [%] | pEC50 [2] | Emax [2] [%]
1 | CN(C)C(=O)c1ccc(N2CCC(C3CCN(C(=O)c4ccccc4Cl)CC3)CC2)cc1Cl [Example A-22, 2-chloro-4-{1′-[(2-chlorophenyl)carbonyl]-4,4′-bipiperidin-1-yl}-N,N-dimethylbenzamide] | 9.00 | 3 | 7.28 | 58
2 | CN(C)C(=O)c1ccc(N2CCC(C3CCN(C(=O)c4c(F)cccc4F)CC3)CC2)cc1Cl [Example A-23, 2-chloro-4-{1′-[(2,6-difluorophenyl)carbonyl]-4,4′-bipiperidin-1-yl}-N,N-dimethylbenzamide] | 5.53 | 23 | 7.10 | 92
3 | CN(C)C(=O)c1ccc(N2CCC(C3CCN(C(=O)c4c(F)cccc4C(F)(F)F)CC3)CC2)cc1Cl [Example A-25, 2-chloro-4-(1′-{[2-fluoro-6-(trifluoromethyl)phenyl]carbonyl}-4,4′-bipiperidin-1-yl)-N,N-dimethylbenzamide] | 5.45 | 54 | 6.95 | 109
4 | CN(C)C(=O)c1ccc(N2CCC(C3CCN(C(=O)C4(C(F)(F)F)CCCCC4)CC3)CC2)cc1Cl [Example A-27, 2-chloro-N,N-dimethyl-4-(1′-{[1-(trifluoromethyl)cyclohexyl]carbonyl}-4,4′-bipiperidin-1-yl)benzamide] | 6.52 | 70 | 7.59 | 119
5 | CN(C)C(=O)c1ccc(N2CCC(C3CCN(C(=O)C4(C(F)(F)F)CCC4)CC3)CC2)cc1Cl [Example A-29, 2-chloro-N,N-dimethyl-4-(1′-{[1-(trifluoromethyl)cyclobutyl]carbonyl}-4,4′-bipiperidin-1-yl)benzamide] | 5.45 | 46 | 6.28 | 106
6 | CN(C)C(=O)c1ccc(N2CCC(C3CCN(C(=O)C(O)(C(F)(F)F)C4(C)CC4)CC3)CC2)cc1Cl (stereo not shown) [Example A-30, 2-chloro-N,N-dimethyl-4-{1′-[3,3,3-trifluoro-2-hydroxy-2-(1-methylcyclopropyl)propanoyl]-4,4′-bipiperidin-1-yl}benzamide] | 5.67 | 62 | 7.14 | 119
7 | CN(C)C(=O)c1c(Cl)cc(N2CCC(C3CCN(C(=O)[C@](O)(c4ccccc4)C(F)(F)F)CC3)CC2)cc1Cl [Example A-33, 2,6-dichloro-N,N-dimethyl-4-{1′-[(2R)-3,3,3-trifluoro-2-hydroxy-2-phenylpropanoyl]-4,4′-bipiperidin-1-yl}benzamide] | 6.32 | 25 | 7.32 | 86
8 | CN(C)C(=O)c1ccc(N2CCC(C3CCN(C(=O)c4c(F)cc(F)cc4F)CC3)CC2)cc1Cl [Example A-37, 2-chloro-N,N-dimethyl-4-{1′-[(2,4,6-trifluorophenyl)carbonyl]-4,4′-bipiperidin-1-yl}benzamide] | 5.39 | 35 | 6.56 | 93
9 | Cc1ccc(F)c(C(=O)N2CCC(C3CCN(c4ccc(C(=O)N(C)C)c(Cl)c4)CC3)CC2)c1F [Example A-38, 2-chloro-4-{1′-[(2,6-difluoro-3-methylphenyl)carbonyl]-4,4′-bipiperidin-1-yl}-N,N-dimethylbenzamide] | 5.46 | 22 | 6.79 | 85
10 | CN(C)C(=O)c1ccc(N2CCC(C3CCN(C(=O)C4(c5ccccc5)CC4)CC3)CC2)cc1Cl [Example A-39, 2-chloro-N,N-dimethyl-4-{1′-[(1-phenylcyclopropyl)carbonyl]-4,4′-bipiperidin-1-yl}benzamide] | 5.26 | 32 | 6.85 | 101
11 | CN(C)C(=O)c1ccc(N2CCC(C3CCN(C(=O)C4(c5ccccc5)CCCC4)CC3)CC2)cc1Cl [Example A-40, 2-chloro-N,N-dimethyl-4-{1′-[(1-phenylcyclopentyl)carbonyl]-4,4′-bipiperidin-1-yl}benzamide] | 6.03 | 41 | 7.43 | 113
12 | CN(C)C(=O)c1ccc(N2CCC(C3CCN(C(=O)C(C)(C)c4ccc(Cl)cc4)CC3)CC2)cc1Cl [Example A-44, 2-chloro-4-{1′-[2-(4-chlorophenyl)-2-methylpropanoyl]-4,4′-bipiperidin-1-yl}-N,N-dimethylbenzamide] | 5.70 | 22 | 6.84 | 95

Further lines, results first:

Row | pEC50 [1] | Emax [1] [%] | pEC50 [2] | Emax [2] [%] | SMILES
13 | 5.31 | 31 | 7.05 | 107 | CN(C)C(=O)c1ccc(N2CCC(C3CCN(C(=O)c4c(F)cccc4Cl)CC3)CC2)cc1Cl [Example A-24, 2-chloro-4-{1′-[(2-chloro-6-fluorophenyl)carbonyl]-4,4′-bipiperidin-1-yl}-N,N-dimethylbenzamide]
14 | 6.01 | 45 | 6.95 | 103 | CC(C)C(O)(C(=O)N1CCC(C2CCN(c3ccc(C(=O)N(C)C)c(Cl)c3)CC2)CC1)C(F)(F)C(F)(F)F (stereo not shown) [Example A-26, 2-chloro-N,N-dimethyl-4-{1′-[3,3,4,4,4-pentafluoro-2-hydroxy-2-(1-methylethyl)butanoyl]-4,4′-bipiperidin-1-yl}benzamide]
15 | 5.61 | 73 | 6.76 | 123 | CN(C)C(=O)c1ccc(N2CCC(C3CCN(C(=O)C4(C(F)(F)F)CCCC4)CC3)CC2)cc1Cl [Example A-28, 2-chloro-N,N-dimethyl-4-(1′-{[1-(trifluoromethyl)cyclopentyl]carbonyl}-4,4′-bipiperidin-1-yl)benzamide]
16 | 6.44 | 27 | 7.21 | 86 | C=C(C)C(O)(C(=O)N1CCC(C2CCN(c3ccc(C(=O)N(C)C)c(Cl)c3)CC2)CC1)C(F)(F)F (stereo not shown) [Example A-31, 2-chloro-4-{1′-[2-hydroxy-3-methyl-2-(trifluoromethyl)but-3-enoyl]-4,4′-bipiperidin-1-yl}-N,N-dimethylbenzamide]
17 | 6.13 | 24 | 7.00 | 88 | CN(C)C(=O)c1c(Cl)cc(N2CCC(C3CCN(C(=O)c4c(F)cccc4F)CC3)CC2)cc1Cl [Example A-32, 2,6-dichloro-4-{1′-[(2,6-difluorophenyl)carbonyl]-4,4′-bipiperidin-1-yl}-N,N-dimethylbenzamide]
18 | 5.87 | 46 | 6.92 | 103 | CC(C)C(O)(C(=O)N1CCC(C2CCN(c3cc(Cl)c(C(=O)N(C)C)c(Cl)c3)CC2)CC1)C(F)(F)F (stereo not shown) [Example A-34, 2,6-dichloro-4-{1′-[2-hydroxy-3-methyl-2-(trifluoromethyl)butanoyl]-4,4′-bipiperidin-1-yl}-N,N-dimethylbenzamide]
19 | 6.66 | 59 | 8.15 | 86 | CN(C)C(=O)c1ccc(N2CCC(C3CCN(C(=O)C(O)(C(F)(F)F)C(F)(F)F)CC3)CC2)cc1Cl [Example A-35, 2-chloro-N,N-dimethyl-4-{1′-[3,3,3-trifluoro-2-hydroxy-2-(trifluoromethyl)propanoyl]-4,4′-bipiperidin-1-yl}benzamide]
20 | 5.74 | 27 | 6.97 | 113 | CN(C)C(=O)c1ccc(N2CCC(C3CCN(C(=O)C(O)(c4ccccc4)C(F)(F)F)CC3)CC2)cc1Cl (stereo not shown) [Example A-36, 2-chloro-N,N-dimethyl-4-[1′-(3,3,3-trifluoro-2-hydroxy-2-phenylpropanoyl)-4,4′-bipiperidin-1-yl]benzamide]
21 | 5.47 | 71 | 7.08 | 112 | CN(C)C(=O)c1ccc(N2CCC(C3CCN(C(=O)C(C)(C)C(F)(F)F)CC3)CC2)cc1Cl [Example A-41, 2-chloro-N,N-dimethyl-4-[1′-(3,3,3-trifluoro-2,2-dimethylpropanoyl)-4,4′-bipiperidin-1-yl]benzamide]
22 | 6.24 | 53 | 7.96 | 108 | CN(C)C(=O)c1ccc(N2CCC(C3CCN(C(=O)C4(c5ccccc5F)CCCC4)CC3)CC2)cc1Cl [Example A-45, 2-chloro-4-(1′-{[1-(2-fluorophenyl)cyclopentyl]carbonyl}-4,4′-bipiperidin-1-yl)-N,N-dimethylbenzamide]

Reference: patent US20180305332A1, “Bispiperidinyl Derivatives as Liver X Receptor Beta Agonists, Compositions, and Their Use” (Merck Sharp & Dohme Corp., priority 2015, published 2018)
